According to publication PMC7044277 (Nature Communications, 2020):
Several values for one entry are separate records, joined by “and”; a condition that tells them apart may be missing. Identical values can stand only once.

Key:
[1] = molecular target: DRD2 (D2 long receptor) wild-type (Homo sapiens, UniProt P14416); test: Radioligand competition binding, [3H]-N-methylspiperone, HEK293T membranes
DRD3 wild-type = DRD3 wild-type (Homo sapiens, UniProt P35462); test: Radioligand competition binding, [3H]-N-methylspiperone
DRD3 wild-type, sequence (P35462 whole entry): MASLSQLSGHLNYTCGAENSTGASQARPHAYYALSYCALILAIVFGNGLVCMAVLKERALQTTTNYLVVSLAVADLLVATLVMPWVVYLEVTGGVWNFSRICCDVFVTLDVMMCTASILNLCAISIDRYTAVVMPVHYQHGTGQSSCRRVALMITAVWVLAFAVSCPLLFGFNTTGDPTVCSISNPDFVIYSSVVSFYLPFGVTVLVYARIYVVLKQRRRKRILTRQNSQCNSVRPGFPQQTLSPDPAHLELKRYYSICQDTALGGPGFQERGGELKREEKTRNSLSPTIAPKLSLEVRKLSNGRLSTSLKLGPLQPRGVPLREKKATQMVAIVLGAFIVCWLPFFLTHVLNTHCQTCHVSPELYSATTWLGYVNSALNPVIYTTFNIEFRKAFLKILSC

[2] = molecular target: T1, DRD4 (D4.4 variant) wild-type (Homo sapiens, UniProt P21917); test: as above; settings: DRD4; [3H]-methylspiperone (0.8-1.0 nM); read-out: Ki
T1 sequence (P21917 1-419): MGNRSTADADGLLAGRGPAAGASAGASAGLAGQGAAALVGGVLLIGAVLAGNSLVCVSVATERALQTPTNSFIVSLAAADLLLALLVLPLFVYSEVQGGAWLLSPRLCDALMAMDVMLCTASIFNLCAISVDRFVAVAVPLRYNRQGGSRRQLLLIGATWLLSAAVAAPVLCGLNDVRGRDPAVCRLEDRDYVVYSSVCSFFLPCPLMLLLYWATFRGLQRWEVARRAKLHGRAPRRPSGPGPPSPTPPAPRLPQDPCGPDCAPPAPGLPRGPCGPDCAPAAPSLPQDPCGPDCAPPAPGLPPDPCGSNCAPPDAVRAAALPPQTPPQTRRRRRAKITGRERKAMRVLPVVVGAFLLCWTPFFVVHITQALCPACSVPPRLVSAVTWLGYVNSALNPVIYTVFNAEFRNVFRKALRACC

DRD2 (D2 long receptor) [3] = molecular target: T2, DRD2 (D2 long receptor) (Homo sapiens, UniProt P14416); test: Gαi/o-mediated cAMP inhibition (GloSensor split-luciferase cAMP reporter), HEK293T; format: cell-based; settings: for Response, Fig_S11b dose-response: individual replicates;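 as to all read-outs here: compounds applied 15 min at room temperature, then luciferin plus 400 nM isoproterenol to raise cAMP through endogenous β2-adrenergic receptors, luminescence read 15 min later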
T2 sequence (P14416 whole entry): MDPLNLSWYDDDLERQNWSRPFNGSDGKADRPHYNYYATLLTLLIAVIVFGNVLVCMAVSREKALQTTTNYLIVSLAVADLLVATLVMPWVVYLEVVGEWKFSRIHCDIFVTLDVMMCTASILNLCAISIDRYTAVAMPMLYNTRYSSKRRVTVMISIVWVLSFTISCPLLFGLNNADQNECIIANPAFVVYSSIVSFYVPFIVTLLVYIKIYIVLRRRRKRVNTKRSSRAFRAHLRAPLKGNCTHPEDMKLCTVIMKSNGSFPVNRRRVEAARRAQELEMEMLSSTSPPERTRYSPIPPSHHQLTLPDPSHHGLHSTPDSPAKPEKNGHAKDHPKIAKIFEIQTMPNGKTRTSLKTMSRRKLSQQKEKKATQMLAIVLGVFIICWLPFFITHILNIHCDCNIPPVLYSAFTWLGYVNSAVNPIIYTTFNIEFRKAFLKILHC

DRD4 (D4.4 variant) [4] = molecular target: T3, DRD4 (D4.4 variant) (Homo sapiens, UniProt P21917); test: Gαi/o-mediated cAMP inhibition (GloSensor); format: cell-based; settings: DRD4; agonist, cAMP inhibition; read-out: EC50 ± SEM
T3 sequence (P21917 1-419): T1 sequence (P21917 1-419)

DRD2 (D2 long receptor) [5] = molecular target: T2, DRD2 (D2 long receptor); test: β-arrestin2 recruitment (Tango), HTLA cells; format: cell-based; settings: for Response, Fig_S11c dose-response: individual replicates
DRD3 = DRD3 (Homo sapiens, UniProt P35462); test: β-arrestin2 recruitment (Tango); format: cell-based; settings: DRD3, Tango
DRD3, sequence (P35462 whole entry): as the sequence (P35462 whole entry) above

DRD4 (D4.4 variant) [6] = molecular target: T3, DRD4 (D4.4 variant); test: β-arrestin2 recruitment (Tango); format: cell-based; settings: DRD4; Tango; read-out: EC50 ± SEM
DRD2 F1103.28A = DRD2 F1103.28A (Homo sapiens, UniProt P14416, F110A); format: binding; set-up: expressed in transfected cells; host or cells: HEK293T (ATCC CRL-11268); settings: DRD2 F1103.28A
DRD2 F1103.28A, sequence (P14416 whole entry F110A): as the sequence (P14416 whole entry) above, with F110A counted along it

DRD2 (D2 long receptor) wild-type, sequence (P14416 whole entry): as the sequence (P14416 whole entry) above

COc1cccc2cc(C(C)NCC3(O)CCCCC3)oc12.Cl (centres unmarked) [O3LE6]
Ki ([1]; DRD2, [3H]-methylspiperone (0.8-1.0 nM), read-out: Ki): 4.78 µM | pKi ± SEM ([1]; DRD2 wild-type): 5.32±0.22 | Ki (DRD3 wild-type; DRD3, [3H]-methylspiperone (0.8-1.0 nM), read-out: Ki): 1.07 µM | pKi ± SEM (DRD3 wild-type; DRD3 wild-type): 5.97±0.13 | Ki [2]: > 10 µM | EC50 (DRD2 (D2 long receptor) [3]; DRD2, agonist, Gαi/o-mediated cAMP inhibition, read-out: EC50 ± SEM): 0.00538 ± 0.00115 µM | Emax relative to quinpirole response (DRD2 (D2 long receptor) [3]; DRD2, cAMP inhibition): 91.62% | Response, Fig_S11b dose-response (DRD2 (D2 long receptor) [3]; Log[Drug] -5): 91.2746 and 93.268 and 92.0221 and 94.9982 and 95.9757 and 91.0458 and 94.8288 and 96.7238 and 94.4943 | Response, Fig_S11b dose-response (DRD2 (D2 long receptor) [3]; Log[Drug] -5.52): 84.7131 and 82.1661 and 88.7829 and 90.1533 and 94.7432 and 84.076 and 96.9467 and 103.412 and 92.2649 | Response, Fig_S11b dose-response (DRD2 (D2 long receptor) [3]; Log[Drug] -6): 91.1916 and 89.8903 and 94.4031 and 97.8031 and 85.4785 and 88.6659 and 101.461 and 101.183 and 85.6322 | Response, Fig_S11b dose-response (DRD2 (D2 long receptor) [3]; Log[Drug] -6.52): 79.2314 and 90.7486 and 80.9756 and 96.6556 and 102.308 and 66.8216 and 90.3141 and 94.5501 and 81.1733 | Response, Fig_S11b dose-response (DRD2 (D2 long receptor) [3]; Log[Drug] -7): 93.1296 and 79.0099 and 76.7951 and 89.8559 and 81.4411 and 87.5184 and 97.0582 and 96.7796 and 87.8617 | Response, Fig_S11b dose-response (DRD2 (D2 long receptor) [3]; Log[Drug] -7.52): 73.6389 and 59.4361 and 66.496 and 84.9685 and 73.1539 and 73.1114 and 79.2783 and 81.1733 and 101.35 | Response, Fig_S11b dose-response (DRD2 (D2 long receptor) [3]; Log[Drug] -8): 62.703 and 59.1593 and 45.4826 and 64.1867 and 54.9645 and 52.4996 and 72.7571 and 85.8552 and 67.9638 | Response, Fig_S11b dose-response (DRD2 (D2 long receptor) [3]; Log[Drug] -8.52): 23.5556 and 18.5998 and 3.594 and 27.9779 and 38.8575 and 46.6347 and 39.4267 and 57.0952 and 34.8006 | Response, Fig_S11b dose-response (DRD2 (D2 long receptor) [3]; Log[Drug] -9): 24.2477 and 23.1957 and 12.4536 and 22.6655 and 22.9205 and 23.0055 and 26.2172 and 30.5646 and 12.7847 | Response, Fig_S11b dose-response (DRD2 (D2 long receptor) [3]; Log[Drug] -10.52): -0.1987 and -7.8123 | Response, Fig_S11b dose-response (DRD2 (D2 long receptor) [3]; Log[Drug] -11): 6.197 and 12.6784 and -7.6785 and 0.5663 | Response, Fig_S11b dose-response (DRD2 (D2 long receptor) [3]; Log[Drug] -11.52): -9.1412 and 3.4 and -7.0575 and 6.319 | Response, Fig_S11b dose-response (DRD2 (D2 long receptor) [3]; Log[Drug] -12): -5.1267 and 0.6872 and -14.1523 and 6.559 and 2.691 and 2.479 and -11.9066 and 21.591 and -2.8216 | EC50 (DRD4 (D4.4 variant) [4]): > 10 µM | Emax relative to quinpirole response (DRD2 (D2 long receptor) [5]; DRD2, Tango): 109.80% | EC50 (DRD2 (D2 long receptor) [5]; DRD2, β-arrestin2 recruitment (Tango), read-out: EC50 ± SEM): 0.166 ± 0.0764 µM | response, Fig_S11c dose-response source data (DRD2 (D2 long receptor) [5]; Fig_S11c, Log[Drug] -5, replicate values): 121.198 and 127.001 and 100.932 and 110.321 and 113.709 and 113.34 and 97.1155 | Response, Fig_S11c dose-response (DRD2 (D2 long receptor) [5]; Log[Drug] -6.52): 92.1418 and 88.9307 | Response, Fig_S11c dose-response (DRD2 (D2 long receptor) [5]; Log[Drug] -7): 77.394 and 77.7575 and 68.5542 and 65.6395 and 57.0787 and 60.1228 and 51.2599 and 46.3298 | Response, Fig_S11c dose-response (DRD2 (D2 long receptor) [5]; Log[Drug] -7.52): 38.329 and 41.6231 and 33.61 and 32.4962 and 32.299 and 34.1126 and 16.8232 and 31.0553 and 35.575 | Response, Fig_S11c dose-response (DRD2 (D2 long receptor) [5]; Log[Drug] -8): 11.9901 and 12.2692 and 10.2755 and 10.8849 and 10.4485 and 8.443 and 10.7171 and 9.707 and 5.469 | Response, Fig_S11c dose-response (DRD2 (D2 long receptor) [5]; Log[Drug] -8.52): 3.649 and 3.804 and 4.186 and 3.535 and 4.03 and 2.927 and 1.899 and 5.413 and 2.845 | Response, Fig_S11c dose-response (DRD2 (D2 long receptor) [5]; Log[Drug] -9): 2.6531 and 2.675 and 3.049 and 2.914 and 2.704 and 2.807 and 3.034 (2×) and 2.494 | Response, Fig_S11c dose-response (DRD2 (D2 long receptor) [5]; Log[Drug] -9.52): 2.467 and 2.869 and 2.678 and 2.37 and 2.33 and 2.2184 and 1.931 and 2.13 and 2.319 | Response, Fig_S11c dose-response (DRD2 (D2 long receptor) [5]; Log[Drug] -10): 2.843 and 2.654 and 2.976 and 2.168 and 2.347 and 2.222 and 3.804 and 1.194 and 2.499 | Response, Fig_S11c dose-response (DRD2 (D2 long receptor) [5]; Log[Drug] -10.52): 2.259 and 2.282 and 2.549 and 2.128 and 2.141 (2×) and 0.6309 and 3.246 and 2.4849 | Response, Fig_S11c dose-response (DRD2 (D2 long receptor) [5]; Log[Drug] -11): 2.232 and 3.428 and 2.336 and 2.237 and 2.197 and 2.087 and 5.0906 and 1.927 and 3.601 | Response, Fig_S11c dose-response (DRD2 (D2 long receptor) [5]; Log[Drug] -11.52): 2.2032 and 3.321 and 2.444 and 2.452 and 2.181 and 2.306 and 0.82 and 1.028 and 2.688 | Response, Fig_S11c dose-response (DRD2 (D2 long receptor) [5]; Log[Drug] -12): 2.5295 and 2.339 and 2.21 and 2.47 and 2.197 and 2.157 and 4.362 and 2.319 and 1.955 | Emax relative to quinpirole response (DRD3): 80.01% | EC50 (DRD3; read-out: EC50 ± SEM): 5.48 ± 3.94 µM | EC50 (DRD4 (D4.4 variant) [6]): > 10 µM | pKi ± SEM (DRD2 F1103.28A): 5.49±0.16 | Ki (DRD2 F1103.28A; read-out: Ki): 3.24 µM
